The record followed here is patent publication US6306899A (priority 1999, dated 2001).

For one data set, the system named is HBsAg in HepA2 cells. Description: Suppression of HBsAg secretion in HepA2 cells, serum-free, 2 days. The data set is classed as cell-based. The settings on record: Homo sapiens, HepA2, 48 h, read-out: EC50 HepA2 (50% reduction of HBsAg secretion). The text has this:
(§1) Biological testing results of Helioxanthin and
(§2) its derivatives for suppression of HBsAg
(§3) in HepA2 and Hep3B cells in serum-free condition for 2 days
The symbol, "*" denotes HepA2, HBV DNA stable transfected HBV dimer DNA.
(§4) The symbol, "**" denotes EC50, the concentration of tested compounds
(§5) which exerted 50% reduction of HBsAg secretion in human hepatoma cells.

The subject of another data set is HBsAg in Hep3B cells. Description: Suppression of HBsAg secretion in Hep3B cells, serum-free, 2 days. The data set is classed as cell-based. Particulars: Homo sapiens, 48 h, read-out: EC50 Hep3B (50% reduction of HBsAg secretion).
From the text: as §1, §2, §3, §4, §5

For another data set, the system named is HBsAg. The data set is described as follows: microbe, parasite or virus in culture. The data set is classed as cell-based, Hepatitis B virus. Particulars: for EC50: Hepatitis B virus, 144 h, read-out: Anti-viral activity (ED50) HbsAg; for HbsAg expression inhibition: in words.
Another data set relates to HBV. The data set is described as follows: microbe, parasite or virus in culture. The class given is cell-based, Hepatitis B virus. The settings on record: for EC50: Hepatitis B virus, 144 h; for inhibition of HBV replication / DNA level: in words.
The next data set concerns Yellow Fever virus. Description: microbe, parasite or virus in culture. The class given is cell-based.
Data set [1] can be described thus: Cytotoxicity, HepG2 cell growth. The data set is classed as cell-based. Particulars: human, hepg2 cells; 3 days; read-out: Cytotoxicity (IC50) HepG2 cell. How it is done:
(§6) To determine the cellular toxicity of the present compounds, the T-lymphoblastoic cell line (CEM) and the HEP-G2 cell line (parent cell line from which 2.2.15 cell line is produced) were used. Cells were subjected to varying concentrations of the drug(s) and cell numbers were determined 3 days post treatment by the method described by Chen, C-H and Cheng, Y-C, J. Biol. Chem., 264, 11934 (1989). Concentrations of the drug which would result in inhibition of cell growth were determined from the plot generated by representing cell numbers corresponding to the individual drug concentrations.

Data set [2] in a line: Cytotoxicity, CEM cell growth. The data set is classed as cell-based. Particulars: human, cem cells; 3 days; read-out: Cytotoxicity (IC50) CEM cell. Here is the method:
as §6

Data set [3] can be described thus: Solubility: saturated solution in PBS at room temperature. The data set is classed as physicochemical. Particulars: aqueous buffer. The text has this:
3. The symbol "*" denotes the concentration of the saturated solution in
PBS at room temperature.

Setting [4] is: Yellow fever virus, BHK, 144 h, read-out: Anti-viral activity (ED50) YFV, plaque reduction, BHK cells, 6 days.

In brackets after ≈: the same amount, converted by molar mass. Where two headings read alike, the source gives them in different places. Some results are limits rather than exact numbers.

For `COc1cc(C2c3cc(OC(C)=O)c(OC)cc3CC3C(=O)OCC32)ccc1OC(C)=O` (stereo not drawn) [Conidendrin Diacetate], the EC50 in the data set with HBsAg in HepA2 cells and in the data set with HBsAg in Hep3B cells was over 12.5 µM throughout.
With `COc1ccc(C2c3cc(OC)c(OC)cc3CC3C(=O)OCC32)cc1OC` (stereo not drawn) [Conidendrin Methyl Ether], the EC50 with HBsAg in HepA2 cells and in the data set with HBsAg in Hep3B cells was over 12.5 µM throughout.
Turning to `COc1cc(C2c3cc(O)c(OC)cc3CC3C(=O)OCC32)ccc1O` (stereo not drawn) [Conidendrin], the EC50 in the data set with HBsAg in HepA2 cells and in the data set on HBsAg in Hep3B cells was over 12.5 µM throughout.
Take `COc1cc(-c2c3c(cc4cc(OC)c(O)cc24)C(=O)OC3)ccc1O` [Dehydroconidendrin]: the EC50 with HBsAg in HepA2 cells and in the data set on HBsAg in Hep3B cells was over 12.5 µM each time.
As to `COc1cc(-c2c3c(cc4cc(OC)c(OC(C)=O)cc24)C(=O)OC3)ccc1OC(C)=O` [Diacetate], the EC50 in the data set with HBsAg in HepA2 cells and in the data set with HBsAg in Hep3B cells was over 12.5 µM throughout.
In the case of `COc1cc2c(OC(C)=O)c3c(c(-c4ccc5c(c4)OCO5)c2cc1OC)C(=O)OC3` [Diphylline Acetate], the EC50 with HBsAg in HepA2 cells and with HBsAg in Hep3B cells was over 12.5 µM throughout.
On to `COc1cc2c(O)c3c(c(-c4ccc5c(c4)OCO5)c2cc1OC)C(=O)OC3` [Diphylline], for which the EC50 in the data set with HBsAg in HepA2 cells and in the data set on HBsAg in Hep3B cells was over 12.5 µM in each case.
`COc1cc2c(OC)c3c(c(-c4ccc5c(c4)OCO5)c2cc1OC)C(=O)OC3` [Justicidin A]: the EC50 in the data set with HBsAg in HepA2 cells and with HBsAg in Hep3B cells was over 12.5 µM throughout.
With `O=C1OCc2cc3cc4c(cc3c(-c3ccc5c(c3)OCO5)c21)OCO4` [Taiwanin C], the EC50 in the data set on HBsAg in HepA2 cells was 1.25 µM; with HBsAg in Hep3B cells it was 1 µM.
Consider `CC(=O)Oc1c2c(c(-c3ccc4c(c3)OCO4)c3cc4c(cc13)OCO4)C(=O)OC2` [Taiwanin E acetate], for which the EC50 in the data set on HBsAg in HepA2 cells and with HBsAg in Hep3B cells was over 12.5 µM in each case.
As to `O=C1OCc2c1c(-c1ccc3c(c1)OCO3)c1cc3c(cc1c2O)OCO3` [Taiwanin E], the EC50 in the data set with HBsAg in HepA2 cells and with HBsAg in Hep3B cells was over 12.5 µM in each case.
As to `O=C1OC(=O)c2c1cc1c(Br)cc3c(c1c2-c1cc2c(cc1Br)OCO2)OCO3` [ZHU-IX-120-1, 5-bromo-7,8-methylenedioxy-1-(2'-bromo-4',5'-methylenedioxyphenyl)napthalene-2,3-dicarboxylic acid anhydride], the EC50 in the data set on HBsAg, in the data set on HBV and in the data set with Yellow Fever virus (setting [4]) was over 10 µM each time. Moreover, the CC50 at 72 h in data set [1] is 6 µM; in data set [2], over 30 µM. Besides, the solubility (usually the concentration that dissolves in the medium under given conditions) in data set [3] was 13.8 µM (≈ 7.18 µg/mL).
`O=C1OC(=O)c2c1c(Br)c1cc3c(cc1c2-c1cc2c(cc1Br)OCO2)OCO3` [ZHU-IX-120-2, 1-bromo-6,7-methylenedioxy-4-(2'-bromo-4', 5'-methylenedioxyphenyl)napthalene-2,3-dicarboxylic acid anyhdride]: the EC50 in the data set on HBsAg, in the data set with HBV and in the data set on Yellow Fever virus (setting [4]) was over 10 µM throughout. The CC50 at 72 h is 6 µM in data set [1] and over 30 µM in data set [2]. Further, in data set [3], the solubility was 13.1 µM (≈ 6.81 µg/mL).
For the compound `O=C1OC(=O)c2c1cc1cc3c(cc1c2-c1cc2c(cc1Br)OCO2)OCO3` [ZHU-IX-120-3, 6,7-methylenedioxy-1-(2'-bromo-4',5'-methylenedioxyphenyl)napthalene-2,3-dicarboxylic acid anhydride], the EC50 with HBsAg, with HBV and in the data set with Yellow Fever virus (setting [4]) was over 10 µM throughout. For the same compound, the CC50 at 72 h in data set [1] is 11 µM; in data set [2] it was over 30 µM. In data set [3], this compound yielded a solubility of 11.8 µM (≈ 5.21 µg/mL).
Take `Cc1c(CO)cc2ccc3c(c2c1-c1ccc2c(c1)OCO2)OCO3` [ZHU-IX-122-1, 3-methyl-5,6-methylenedioxy-4-(3',4'-methylenedioxyphenyl)-2-hydroxymethylnapthalene]: the EC50 in the data set with HBsAg is 10 µM; in the data set with HBV it was 5 µM; with Yellow Fever virus (setting [4]), over 10 µM. For the same compound, the HbsAg expression inhibition entry in the data set with HBsAg is “inhibit HBV replication and HbsAg expression”. Besides, in the data set on HBV, the “inhibition of HBV replication / DNA level” value is “inhibit HBV replication”. The CC50 at 72 h in data set [1] and in data set [2] was over 30 µM in each case. In data set [3], the solubility was 52.9 µM (≈ 17.8 µg/mL).
Take `OCc1cc2ccc3c(c2c(-c2ccc4c(c2)OCO4)c1CO)OCO3` [ZHU-IX-124-2, 2,3-dihydroxymethyl-5,6-methylenedioxy-4-(3',4'-methylenedioxyphenyl)napthalene]: the results for the EC50 in the data set with HBsAg, with HBV and in the data set on Yellow Fever virus (setting [4]) were 10 µM, 10 µM and over 10 µM, respectively. The CC50 at 72 h is 16 µM in data set [1] and over 30 µM in data set [2]. Also, in data set [3], the solubility was 127 µM (≈ 44.8 µg/mL).
For the compound `OCc1cc2c(Br)cc3c(c2c(-c2ccc4c(c2)OCO4)c1CO)OCO3` [ZHU-IX-135-1, 2,3-dihydroxymethyl-5-bromo-7,8-methylenedioxy-1-(3', 4'-methylenedioxyphenyl)napthalene], the EC50 in the data set on HBsAg came to 8.5 µM; with HBV, 3 µM; in the data set on Yellow Fever virus (setting [4]) it was 14 µM. In addition, the HbsAg expression inhibition entry in the data set with HBsAg is “inhibit HBV replication and HbsAg expression”. Also, in the data set on HBV, the “inhibition of HBV replication / DNA level” value was “inhibit HBV replication”. In addition, the CC50 at 72 h was 12 µM in data set [1] and over 30 µM in data set [2]. Also, in data set [3], the concentration in solution (solubility) came to 24.8 µM (≈ 10.7 µg/mL).
In the case of `O=C(O)c1c(CO)cc2ccc3c(c2c1-c1ccc2c(c1)OCO2)OCO3` [ZHU-IX-153, sodium 7,8-methylenedioxy-1-(3',4'-methylendioxyphenyl)-3-hydroxymethylnapthalene-2-carbonate], the EC50 in the data set with HBsAg, in the data set with HBV and in the data set on Yellow Fever virus (setting [4]) was over 10 µM in each case. For the same compound, the CC50 at 72 h in data set [1] was over 30 µM. The compound also showed a solubility in data set [3] of 255 µM.
In the case of `Cc1cc2ccc3c(c2c(-c2ccc4c(c2)OCO4)c1CO)OCO3` [ZHU-IX-159, 3-methyl-7,8-methylenedioxy-1-(3',4'-methylenedioxyphenyl)-2-hydroxymethylenaphtalene], the EC50 in the data set with HBsAg is 10 µM; with HBV it was over 10 µM; with Yellow Fever virus (setting [4]), over 10 µM. In addition, the CC50 at 72 h in data set [1] was 16 µM. The compound also came in with a solubility in data set [3] of 24.4 µM (≈ 8.21 µg/mL).
In the case of `Cc1cc2ccc3c(c2c(-c2ccc4c(c2)OCO4)c1C)OCO3` [ZHU-IX-163-2], the EC50 in the data set on HBsAg, with HBV and in the data set with Yellow Fever virus (setting [4]) was over 10 µM each time. The CC50 at 72 h in data set [1] was 17 µM. The same compound showed a solubility in data set [3] of 18.4 µM (≈ 5.89 µg/mL).
With `Cc1c(C=O)cc2ccc3c(c2c1-c1ccc2c(c1)OCO2)OCO3` [ZHU-IX-189, 5,6-methylenedioxy-4-(3',4'-methylendioxyphenyl)-2-methylnapthalene-3-aldehyde], the EC50 in the data set on HBsAg was over 10 µM; in the data set on HBV, over 10 µM; in the data set on Yellow Fever virus (setting [4]) it was over 25 µM.
Turning to `Cc1c(C(=O)O)cc2ccc3c(c2c1-c1ccc2c(c1)OCO2)OCO3` [ZHU-X-4], the EC50 in the data set with HBsAg was over 10 µM; with HBV, over 10 µM; in the data set on Yellow Fever virus (setting [4]), over 20 µM.
Take `Cc1c(C(=O)O)cc2ccc3c(c2c1-c1ccc2c(c1)OCO2)OCO3` [ZHU-X-10, sodium 5,6-methylenedioxy-4-(3',4'-methylenedioxyphenyl)-2-methylnapthalene-3-carbonate]: in the data set with Yellow Fever virus (read-out: Anti-viral activity (ED50) YFV, plaque reduction, BHK cells, 6 days, 8640 min), the EC50 is over 25 µM.
